Laboratory results taken from patent publication US7510847B2, “Kidney-specific urate transporter and gene thereof” (Human Cell Systems, Inc., priority 2001, dated 2009).
Values belong to the molecule of their own block, whether it stands above or below them.

Assays:
URAT1 [1] = molecular target: T1, URAT1 (Homo sapiens, UniProt Q96S37); test: inhibition of [14C] uric acid uptake by oocytes injected with URAT1 cRNA
T1 sequence (Q96S37 1-553): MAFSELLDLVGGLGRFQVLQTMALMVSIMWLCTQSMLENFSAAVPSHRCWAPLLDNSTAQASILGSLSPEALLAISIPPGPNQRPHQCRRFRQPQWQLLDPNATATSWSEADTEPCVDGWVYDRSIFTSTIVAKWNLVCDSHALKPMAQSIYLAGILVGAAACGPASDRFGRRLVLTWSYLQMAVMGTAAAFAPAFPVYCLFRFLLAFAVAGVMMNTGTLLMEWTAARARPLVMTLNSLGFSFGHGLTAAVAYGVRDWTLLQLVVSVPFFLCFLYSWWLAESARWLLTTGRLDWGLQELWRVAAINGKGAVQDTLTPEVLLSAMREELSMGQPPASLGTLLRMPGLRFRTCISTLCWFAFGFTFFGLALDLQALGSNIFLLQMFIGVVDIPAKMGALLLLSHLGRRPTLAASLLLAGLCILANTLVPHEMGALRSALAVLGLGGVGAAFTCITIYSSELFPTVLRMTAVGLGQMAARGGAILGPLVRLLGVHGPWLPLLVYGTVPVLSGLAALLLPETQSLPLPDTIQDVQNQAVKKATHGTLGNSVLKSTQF
Protocol: In order to further study substrate selectivity of URAT1, in the uptake experiment system of [^14C] uric acid by the oocytes injected with URAT1 cRNA, various substances were added to the system and their effects were examined (inhibitory experiments). […] The uptake of 50 μM [^14C] uric acid was measured under the condition at pH 7.4 in the presence and absence of various compounds (unlabeled) at the concentrations shown in FIG. 8.

URAT1 [2] = molecular target: T1, URAT1; test: uric acid uptake by URAT1 oocytes after preincubation with or pre-injection of organic acids (exchange substrate study); assay type: cell-based; parameters: expressed in transfected cells; host or cells: Xenopus laevis oocytes ("platanna") injected with URAT1 cRNA; details: for uptake of radiolabeled uric acid after precedent injection of organic acid into oocytes: 100 nl of 100 mM injected, compared to water injected, FIG. 7; for uptake of uric acid after preincubation of oocytes with organic acid: preincubation 1 mM, oocytes injected with URAT1 cRNA, FIG. 6
Protocol: Therefore, 100 nl of 100 mM non-radiolabeled L-lactic acid was precedently injected in the oocytes, and then the uptake of the radiolabeled uric acid was observed (FIG. 7).

URAT1 [3] = molecular target: T1, URAT1; test: uptake of radiolabeled substrates by oocytes injected with URAT1 cRNA; assay type: cell-based; parameters: expressed in transfected cells; host or cells: Xenopus laevis oocytes ("platanna") injected with URAT1 cRNA; details: oocytes of platanna injected with URAT1 cRNA
Protocol: Michaelis-Menten dynamic experiment in urate transport by URAT1 was carried out. Concentration dependency of uric acid in the transport by URAT1 was studied by examining change of uptake amounts of uric acid at various concentrations by URAT1. The uptake experiment of the radiolabeled uric acid was carried out using oocytes injected with URAT1 cRNA according to the method described above.

[4] = substrate: O=c1[nH]c(=O)c2[nH]c(=O)[nH]c2[nH]1; test: as above; assay type: cell-based, human; details: other: oocytes injected with URAT1 cRNA, FIG. 3
[5] = 50 μM [14C] uric acid, pH 7.4, unlabeled compound at concentrations shown in FIG. 8

Molecule: C[C@@H](O)C(=O)O [D-lactic acid]
inhibition of transport/uptake of [14C] uric acid by URAT1 (URAT1 [1]; [5]): significantly inhibited

Molecule: C[C@H](O)C(=O)O [L-lactic acid]
uptake of radiolabeled uric acid after precedent injection of organic acid into oocytes (URAT1 [2]): significantly high uptake | inhibition of transport/uptake of [14C] uric acid by URAT1 (URAT1 [1]; [5]): significantly inhibited

Molecule: CCCCc1nc(Cl)c(CO)n1Cc1ccc(-c2ccccc2-c2nn[nH]n2)cc1 [Losartan]
IC50 (URAT1 [1]): ~20 µM | inhibition of transport/uptake of [14C] uric acid by URAT1 (URAT1 [1]; [5]): significantly inhibited

Molecule: Nc1ccc(C(=O)NCC(=O)O)cc1 [PAH, para-amino hippuric acid]
uptake of 14C-labeled substrate by oocytes expressing URAT1 (URAT1 [3]): No uptake | uptake of radiolabeled uric acid after precedent injection of organic acid into oocytes (URAT1 [2]): no change | uptake of uric acid after preincubation of oocytes with organic acid (URAT1 [2]): not facilitated | inhibition of transport/uptake of [14C] uric acid by URAT1 (URAT1 [1]; [5]): did not show any inhibitory action

Molecule: CC[N+](CC)(CC)CC [TEA, tetraethylammonium]
uptake of 14C-labeled substrate by oocytes expressing URAT1 (URAT1 [3]): No uptake | inhibition of transport/uptake of [14C] uric acid by URAT1 (URAT1 [1]; [5]): did not show any inhibitory action

Molecule: CCc1oc2ccccc2c1C(=O)c1cc(Br)c(O)c(Br)c1 [benz-bromarone]
inhibition of transport/uptake of [14C] uric acid by URAT1 (URAT1 [1]; pH 7.4): significantly inhibited

Molecule: CC(O)C(=O)O (stereo not shown) [lactic acid]
uptake of uric acid after preincubation of oocytes with organic acid (URAT1 [2]): not facilitated

Molecule: Pyrazine dicarboxylic acid
inhibition of transport/uptake of [14C] uric acid by URAT1 (URAT1 [1]; [5]): slightly weak inhibitory effect

B1: URAT1 (Homo sapiens) (protein)
chain: MAFSELLDLVGGLGRFQVLQTMALMVSIMWLCTQSMLENFSAAVPSHRCWAPLLDNSTAQASILGSLSPEALLAISIPPGPNQRPHQCRRFRQPQWQLLDPNATATSWSEADTEPCVDGWVYDRSIFTSTIVAKWNLVCDSHALKPMAQSIYLAGILVGAAACGPASDRFGRRLVLTWSYLQMAVMGTAAAFAPAFPVYCLFRFLLAFAVAGVMMNTGTLLMEWTAARARPLVMTLNSLGFSFGHGLTAAVAYGVRDWTLLQLVVSVPFFLCFLYSWWLAESARWLLTTGRLDWGLQELWRVAAINGKGAVQDTLTPEVLLSAMREELSMGQPPASLGTLLRMPGLRFRTCISTLCWFAFGFTFFGLALDLQALGSNIFLLQMFIGVVDIPAKMGALLLLSHLGRRPTLAASLLLAGLCILANTLVPHEMGALRSALAVLGLGGVGAAFTCITIYSSELFPTVLRMTAVGLGQMAARGGAILGPLVRLLGVHGPWLPLLVYGTVPVLSGLAALLLPETQSLPLPDTIQDVQNQAVKKATHGTLGNSVLKSTQF
notes: expressed in transfected cells; host or cells: Xenopus laevis oocytes ("platanna") injected with URAT1 cRNA
Km [4]: 372 ± 25 µM

Results, then the molecule that gave them:

uptake of uric acid after preincubation of oocytes with organic acid (URAT1 [2]): significantly increased | inhibition of transport/uptake of [14C] uric acid by URAT1 (URAT1 [1]; [5]): significantly inhibited
Molecule: O=C(O)c1cccnc1 [nicotinic acid, 3-pyridine carboxylic acid]

inhibition of transport/uptake of [14C] uric acid by URAT1 (URAT1 [1]; [5]): significantly inhibited
Molecule: CCCN(CCC)S(=O)(=O)c1ccc(C(=O)O)cc1 [probenecid]

uptake of uric acid after preincubation of oocytes with organic acid (URAT1 [2]): significantly increased | inhibition of transport/uptake of [14C] uric acid by URAT1 (URAT1 [1]; [5]): significantly inhibited
Molecule: O=C(O)c1cnccn1 [pyrazine carboxylic acid]

inhibition of transport/uptake of [14C] uric acid by URAT1 (URAT1 [1]; [5]): significantly inhibited
Molecule: O=C1C(CC[S+]([O-])c2ccccc2)C(=O)N(c2ccccc2)N1c1ccccc1 (stereo not shown) [sulfinpyrazon]

uptake of 14C-labeled substrate by oocytes expressing URAT1 (URAT1 [3]): showed uptake
Molecule: O=c1[nH]c(=O)c2[nH]c(=O)[nH]c2[nH]1 [uric acid]
